Biological target: T1, LXRβ (Homo sapiens, UniProt P55055)
T1 construct: Co-transfection expression plasmids, comprising full-length LXRα (pCMX-h LXRα[…] or LXRβ (pCMX-hLXRβ)); expressed in transfected cells; host or cells: CV-1 African Green Monkey Kidney Cells
T1 sequence (P55055 1-460): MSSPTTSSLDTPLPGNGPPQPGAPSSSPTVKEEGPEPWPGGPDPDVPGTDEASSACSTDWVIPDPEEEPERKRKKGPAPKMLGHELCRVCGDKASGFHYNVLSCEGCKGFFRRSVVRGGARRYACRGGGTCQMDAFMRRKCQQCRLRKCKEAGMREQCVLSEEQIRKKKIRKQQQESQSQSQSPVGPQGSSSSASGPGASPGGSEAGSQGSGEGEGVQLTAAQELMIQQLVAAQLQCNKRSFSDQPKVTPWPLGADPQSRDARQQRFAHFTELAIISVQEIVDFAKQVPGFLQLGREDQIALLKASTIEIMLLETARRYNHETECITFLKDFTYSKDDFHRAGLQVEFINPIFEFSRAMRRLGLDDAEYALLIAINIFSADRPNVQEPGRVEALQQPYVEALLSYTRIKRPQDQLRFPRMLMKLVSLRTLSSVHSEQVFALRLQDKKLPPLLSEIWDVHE
T1 sequence (P19793 1-462 partner): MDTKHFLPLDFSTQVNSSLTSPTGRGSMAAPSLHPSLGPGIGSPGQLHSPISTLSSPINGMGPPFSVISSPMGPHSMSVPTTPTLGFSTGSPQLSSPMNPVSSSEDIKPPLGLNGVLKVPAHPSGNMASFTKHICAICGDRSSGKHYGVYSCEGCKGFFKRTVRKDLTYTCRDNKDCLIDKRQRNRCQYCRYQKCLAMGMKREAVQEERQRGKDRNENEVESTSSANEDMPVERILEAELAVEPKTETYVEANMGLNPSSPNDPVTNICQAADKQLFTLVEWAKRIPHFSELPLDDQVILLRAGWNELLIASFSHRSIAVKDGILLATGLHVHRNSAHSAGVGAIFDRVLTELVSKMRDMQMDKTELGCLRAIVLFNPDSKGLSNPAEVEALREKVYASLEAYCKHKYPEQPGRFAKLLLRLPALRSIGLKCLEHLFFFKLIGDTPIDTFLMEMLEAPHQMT
Experiment: Co-transfection assay (LXRE luciferase reporter), LXRβ
Format: cell-based
Settings: for EC50: CV-1 cells transfected with pCMX-hLXRβ and LXREx1-Tk-Luciferase, 20 hours incubation; for Emax: LXRβ co-transfection, relative to high control 1-(2,4-difluorobenzyl)-2-oxo-6-(4-phenoxyphenyl)-4-(trifluoromethyl)-1,2-dihydropyridine-3-carbonitrile, read-out: % Efficacy
In short: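 Luciferase signal from an LXREx1-Tk reporter was measured after transfected CV-1 cells (full-length hLXRβ, endogenous RXR) were treated with compounds for 20 h at 37 °C, ≤0.5% DMSO. EC50 came from four-parameter fits of 11-point ½-log curves; % efficacy versus a reference agonist maximum.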

Structure (SMILES)	EC50	Emax
Cc1nc(C(F)(F)F)cn1-c1ccc(-c2cccc(S(C)(=O)=O)c2)cc1-n1nncc1C(O)(c1ccc(Cl)cc1)C(F)(F)F (centres unmarked) [Example 11, 1-(4-chlorophenyl)-2,2,2-trifluoro-1-(1-{3′-(methylsulfonyl)-4-[2-methyl-4-(trifluoromethyl)-1H-imidazol-1-yl]biphenyl-3-yl}-1H-1,2,3-triazol-5-yl) ethanol]	332 nM	79%
Cc1nc(C(F)(F)F)cn1-c1ccc(-c2cc(F)c(CO)c(S(C)(=O)=O)c2)cc1-c1nc(C(C)(C)CO)oc1-c1ccc(OC(F)(F)F)cc1 [Example 528, 2-(4-(3′-fluoro-4′-(hydroxymethyl)-4-(2-methyl-4-(trifluoromethyl)-1H-imidazol-1-yl)-5′-(meththsulfonyl)-[1,1′-biphenyl]-3-yl)-5-(4-(trifluoromethoxy)phenyl)oxazol-2-yl)-2-methylpropan-1-ol]	133 nM	20%
COCc1ccc(-c2ccc(-n3cc(C(F)(F)F)nc3C)c(-n3nncc3-c3ccc(OC(F)(F)F)cc3)c2)cc1S(C)(=O)=O [Example 89, 1-{4′-[(methyloxy)methyl]-3′-(methylsulfonyl)-4-[2-methyl-4-(trifluoromethyl)-1H-imidazol-1-yl]biphenyl-3-yl}-5-{4-[(trifluoromethyl)oxy]phenyl}-1H-1,2,3-triazole]	316 nM	83%
Cc1nc(C(F)(F)F)cn1-c1ccc(-c2cc(F)c(CO)c(S(C)(=O)=O)c2)cc1-c1nc(C(F)(F)F)cn1-c1ccc2c(c1)OC(F)(F)O2 [Example 638, (3′-(1-(2,2-difluorobenzo[d][1,3]dioxol-5-yl)-4-(trifluoromethyl)-1H-imidazol-2-yl)-3-fluoro-4′-(2-methyl-4-(trifluoromethyl)-1H-imidazol-1-yl)-5-(methylsulfonyl)biphenyl-4-yl)methanol]	143 nM	79%
Cc1nc(C(F)(F)F)cn1-c1ccc(-c2cc(F)c(CO)c(S(C)(=O)=O)c2)cc1-c1cnnn1-c1ccc(OC(F)(F)F)cc1 [Example 244, [3-fluoro-5-(methylsulfonyl)-4′-[2-methyl-4-(trifluoromethyl)-1H-imidazol-1-yl]-3′-(1-{4-[(trifluoromethyl)oxy]phenyl}-1H-1,2,3-triazol-5-yl)biphenyl-4-yl]methanol]	223 nM	110%
COCc1c(F)cc(-c2ccc(-n3cc(C(C)(F)F)nc3C)c(-n3nncc3-c3ccc(OC(F)(F)F)cc3)c2)cc1S(C)(=O)=O [Example 179, 1-{4-[4-(1,1-difluoroethyl)-2-methyl-1H-imidazol-1-yl]-3′-fluoro-4′-[(methyloxy)methyl]-5′-(methylsulfonyl)biphenyl-3-yl}-5-{4-[(trifluoromethyl)oxy]phenyl}-1H-1,2,3-triazole]	620 nM	105%
Cc1ccc(-c2cnnn2-c2cc(-c3cc(Cl)c(CO)c(S(C)(=O)=O)c3)ccc2-n2cc(C(F)(F)F)nc2C)cc1 [Example 63, {3-chloro-3′-[5-(4-methylphenyl)-1H-1,2,3-triazol-1-yl]-5-(methyllsulfonyl)-4′-[2-methyl-4-(trifluoromethyl)-1H-imidazol-1-yl]biphenyl-4-yl}methanol]	281 nM	68%
Cc1nc(Cl)c(Cl)n1-c1ccc(-c2cccc(S(C)(=O)=O)c2)cc1-n1nncc1-c1ccc(OC(F)(F)F)cc1 [Example 151, 1-[4-(4,5-dichloro-2-methyl-1H-imidazol-1-yl)-3′-(methylsulfonyl)biphenyl-3-yl]-5-{4-[(trifluoromethyl)oxy]phenyl}-1H-1,2,3-triazole]	214 nM	148%

Further lines, results first:

EC50	Emax	Structure (SMILES)
46 nM	92%	Cc1nc(-c2ccc(OC(F)(F)F)cc2)c(-c2cc(-c3ccc(CO)c(S(C)(=O)=O)c3)ccc2-n2cc(C(F)(F)F)nc2C)o1 [Example 607, (3′-(2-methyl-4-(4-(trifluoromethoxy)phenyl)oxazol-5-yl)-4′-(2-methyl-4-(trifluoromethyl)-1H-imidazol-1-yl)-3-(methylsulfonyl)-[1,1′-biphenyl]-4-yl)methanol]
16 nM	75%	Cc1nc(C(F)(F)F)cn1-c1ccc(-c2cc(F)c(CO)c(S(C)(=O)=O)c2)cc1-c1nc(C(C)C)oc1-c1ccc(OC(F)(F)F)cc1 [Example 560, (3-fluoro-3′-(2-isopropyl-5-(4-(trifluoromethoxy)phenyl)oxazol-4-yl)-4′-(2-methyl-4-(trifluoromethyl)-1H-imidazol-1-yl)-5-(methylsulfonyl)-[1,1′-biphenyl]-4-yl)methanol]
109 nM	89%	Cc1nc(-c2cc(-c3cccc(S(C)(=O)=O)c3)ccc2-n2cc(C(F)(F)F)nc2C)c(-c2ccc(Cl)cc2Cl)o1 [Example 486, 5-(2,4-dichlorophenyl)-2-methyl-4-(4-(2-methyl-4-(trifluoromethyl)-1H-imidazol-1-yl)-3′-(methylsulfonyl)biphenyl-3-yl)oxazole]
64 nM	84%	Cc1nc(-c2cc(-c3cccc(S(C)(=O)=O)c3)ccc2-n2cc(C(F)(F)F)nc2C)c(-c2ccc(OC(F)F)c(F)c2)o1 [Example 376, 5-(4-(difluoromethoxy)-3-fluorophenyl)-2-methyl-4-(4-(2-methyl-4-(trifluoromethyl)-1H-imidazol-1-yl)-3′-(methylsulfonyl)biphenyl-3-yl)oxazole]
37 nM	38%	Cc1nc(-c2cc(-c3cc(F)c(CO)c(S(C)(=O)=O)c3)ccc2-n2cc(C(F)(F)F)nc2C)c(-c2ccc(F)cc2F)o1 [Example 454, (3′-(5-(2,4-difluorophenyl)-2-methyloxazol-4-yl)-3-fluoro-4′-(2-methyl-4-(trifluoromethyl)-1H-imidazol-1-yl)-5-(methylsulfonyl)biphenyl-4-yl)methanol]
25 nM	87%	CCCc1nc(-c2ccc(OC(F)(F)F)cc2)c(-c2cc(-c3cccc(S(C)(=O)=O)c3)ccc2-n2cc(C(F)(F)F)nc2C)o1 [Example 602, 5-{3′-(methylsulfonyl)-4-[2-methyl-4-(trifluoromethyl)-1H-imidazol-1-yl]biphenyl-3-yl}-2-propyl-4-{4-[(trifluoromethyl)oxy]phenyl}-1,3-oxazole]
40 nM	71%	Cc1nc(C(F)(F)F)cn1-c1ccc(-c2cccc(S(C)(=O)=O)c2)cc1-c1nc(C2CC2)oc1-c1ccc2c(c1)OC(F)(F)O2 [Example 482, 2-cyclopropyl-5-(2,2-difluorobenzo[d][1,3]dioxol-5-yl)-4-(4-(2-methyl-4-(trifluoromethyl)-1H-imidazol-1-yl)-3′-(methylsulfonyl)biphenyl-3-yl)oxazole]
50 nM	74%	Cc1nc(-c2cc(-c3cc(F)c(CO)c(S(C)(=O)=O)c3)ccc2-n2cc(C(F)(F)F)nc2C)c(-c2ccc(Cl)c(F)c2)o1 [Example 499, (3′-(5-(4-chloro-3-fluorophenyl)-2-methyloxazol-4-yl)-3-fluoro-4′-(2-methyl-4-(trifluoromethyl)-1H-imidazol-1-yl)-5-(methylsulfonyl)biphenyl-4-yl)methanol]
57 nM	62%	Cc1nc(-c2ccc(OC(F)(F)F)cc2O)c(-c2cc(-c3cccc(S(C)(=O)=O)c3)ccc2-n2cc(C(F)(F)F)nc2C)o1 [Example 626, 2-(2-methyl-5-(4-(2-methyl-4-(trifluoromethyl)-1H-imidazol-1-yl)-3′-(methylsulfonyl)-[1,1′-biphenyl]-3-yl)oxazol-4-yl)-5-(trifluoromethoxy)phenol]
272 nM	60%	COc1ncc(F)cc1-c1oc(C)nc1-c1cc(-c2cc(F)c(CO)c(S(C)(=O)=O)c2)ccc1-n1cc(C(F)(F)F)nc1C [Example 401, (3-fluoro-3′-(5-(5-fluoro-2-methoxypyridin-3-yl)-2-methyloxazol-4-yl)-4′-(2-methyl-4-(trifluoromethyl)-1H-imidazol-1-yl)-5-(methylsulfonyl)biphenyl-4-yl)methanol]
90 nM	100%	Cc1nc(-c2ccc(Cl)cc2Cl)c(-c2cc(-c3cccc(S(C)(=O)=O)c3)ccc2-n2cc(C(F)(F)F)nc2C)o1 [Example 608, 4-(2,4-dichlorophenyl)-2-methyl-5-(4-(2-methyl-4-(trifluoromethyl)-1H-imidazol-1-yl)-3′-(methylsulfonyl)-[1,1′-biphenyl]-3-yl)oxazole]

Source: patent US9834542B2, “LXR modulators” (BRISTOL-MYERS SQUIBB COMPANY, priority 2013, dated 2017)
